Key:
Human recombinant 5-LO = target: T1, Human recombinant 5-LO (Homo sapiens, UniProt P09917); assay: 5-Lipoxygenase inhibition in a cell-free assay; assay type: biochemical; conditions: for remaining activity at 10 µM: % relative to vehicle (DMSO), read-out: 5-LO Residual Activity (Cell-Free, 10 µM); for IC50: isolated enzyme
T1 construct: made in house
T1 sequence (P09917 1-674): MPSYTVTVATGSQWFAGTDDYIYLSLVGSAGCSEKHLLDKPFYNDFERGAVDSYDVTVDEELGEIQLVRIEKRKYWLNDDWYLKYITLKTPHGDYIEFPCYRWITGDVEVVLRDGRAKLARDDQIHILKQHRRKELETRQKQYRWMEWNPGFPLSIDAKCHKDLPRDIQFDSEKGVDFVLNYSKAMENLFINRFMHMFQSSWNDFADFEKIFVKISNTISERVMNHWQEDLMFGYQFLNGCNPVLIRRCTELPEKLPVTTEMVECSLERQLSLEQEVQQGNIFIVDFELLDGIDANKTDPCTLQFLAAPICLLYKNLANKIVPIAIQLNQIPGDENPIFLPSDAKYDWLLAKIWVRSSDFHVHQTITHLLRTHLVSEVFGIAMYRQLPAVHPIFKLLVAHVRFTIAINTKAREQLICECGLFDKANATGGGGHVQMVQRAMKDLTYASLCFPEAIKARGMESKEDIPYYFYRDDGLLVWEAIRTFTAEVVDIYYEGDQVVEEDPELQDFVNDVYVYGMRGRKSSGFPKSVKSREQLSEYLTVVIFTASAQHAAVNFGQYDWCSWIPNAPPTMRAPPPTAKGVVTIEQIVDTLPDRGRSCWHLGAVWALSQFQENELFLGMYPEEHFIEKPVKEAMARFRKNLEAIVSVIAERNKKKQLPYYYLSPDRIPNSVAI
Procedure: Human recombinant 5-LO was expressed and isolated as described before, and immediately used for activity assays after isolation. The 5-LO (0.5 µg, in 1 mL PBS pH 7.4 containing 1 mM EDTA) was pre-incubated with the test compounds for 10 min at 4 °C and pre-warmed for 30 s at 37 °C. 5-LO product formation was initiated by sequential addition of 1 mM CaCl2 and 20 μM arachidonic acid. After 10 min at 37 °C, the reaction was terminated by addition of 1 mL ice-cold methanol containing 200 ng PGB1 as internal standard. Formed 5-LO products (trans-LTB4, epi-trans-LTB4, and 5-HETE) were extracted using Sep-Pak C18 35 cc Vac Cartridges and analysed by UPLC-MS/MS as previously described.

[1] = Photostability of O/W emulsions under solar simulator; assay type: physicochemical; conditions: for Photostability (classification, threshold 80%): O/W emulsion, solar irradiation; for %UVAPfeff.: residual UVAPF after solar irradiation; for %UVAPfeff. / %SPFeff.: O/W emulsion on PMMA; for %SPFeff.: residual in vitro SPF after solar irradiation
Procedure: Oil-in-water (O/W) emulsions containing individual filters were spread on PMMA sheet and irradiated with a solar simulator by applying different doses of UVA equivalent to an erythema effective radiant exposure of 100 J/m^2. Photostability was assessed by analysing the spectral transmittance, before and after irradiation, of the sunscreen thin film, measured before and after exposure from 290 to 400 nm. The residual percentages of SPF in vitro (%SPFeff.) and UVAPF (%UVAPFeff.) were calculated according to Equations (6) and (7), respectively. When the %SPFeff. and %UVAPFeff. are greater than or equal to 80, according to current regulations, a filter can be considered photostable [37].
To evaluate the effectiveness and safety profile of a sunscreen formulation, it is necessary to provide data on its photostability. Photodegradation data can be obtained by recording the pre- and post-irradiation transmittance spectra of PMMA plates with finger-coat formulations exposed to a dose of UVA capable of causing erythema. This method, established by Garoli et al., is used to determine photostability. The sun protection layer’s transmission in the range of 290–400 nm is recorded before and after exposure to sunlight, following the protocol.
The residual percentages of SPF in vitro (%SPFeff.) and UVAPf (%UVAPfeff.) were calculated using Equations (6) and (7) and are listed in Table 4. A filter can be classified as photostable if the %SPFeff. is greater than or equal to 80, according to regulatory standards. %SPFeff. = in vitro SPFafter/in vitro SPFbefore × 100(6) %UVAPfeff. = UVAPfafter/UVAPfbefore × 100(7) where SPFafter and SPFbefore are the SPF values calculated from the software after and before solar irradiation, and UVAPfafter and UVAPfbefore are the UVAPf values calculated from the software after and before solar irradiation.

[2] = tested on: human melanoma Colo38 cells; assay: Cell growth inhibition assay, Colo38; assay type: cell-based; conditions: for IC50: Homo sapiens, 24 h incubation, mean ± SD; for SI (selectivity index): IC50 HaCat / IC50 Colo38
Procedure: Cell growth inhibition analyses were performed on human melanoma Colo38 cells and skin HaCat keratinocytes. Human melanoma Colo38 cells were kindly given by Dr. Patrizio Giacomini (Laboratory of Immunology, Regina Elena Institute, Rome, Italy). HaCat cells were obtained from Istituto Zooprofilattico Sperimentale della Lombardia e dell’Emilia-Romagna, Brescia, Italy. Cells were seeded at 40,000 cells/mL and 25,000 cells/mL, respectively. Colo38 cells were maintained in RPMI 1640, supplemented with 10% foetal bovine serum (FBS), penicillin (100 Units/mL), and streptomycin (100 µg/mL). HaCat cells were maintained in DMEM, supplemented with 10% fatal bovine serum (FBS), penicillin (100 Units/mL), streptomycin (100 µg/mL) and glutamine (2 mM); the incubation was performed at 37 °C in a 5% CO2 atmosphere. Compounds were dissolved in DMSO to obtain 50 mM stock solutions and diluted before cell treatment in MeOH. The tested compounds were added at serial dilutions to the cell cultures (from 0.1 to 100 µM) and incubated for 24 h further. Cells were then harvested, suspended in physiological solution, and counted with a Z2 Coulter Counter (Coulter Electronics, Hialeah, FL, USA). The number of cells/mL and the IC50 values were determined when untreated cells were in the log phase of cell growth. Samples of vehicles and untreated cells were included in each plate. Cisplatin was used as positive control for the HaCat cells, while N1-(4-arylidene)-1H-(2-OH-4-N(Et)2-phenyl)-[d]imidazole-2-carbohydrazide was used as positive control for the Colo38 cell line.

[3] = UV spectrophotometric analysis of compounds in solution; assay type: physicochemical; conditions: for ʎmax: 10 µg/mL solution, DMSO diluted in MeOH; for Ɛ (molar extinction coefficient): at ʎmax, Lambert–Beer equation
Procedure: The synthesized compounds were solubilised in DMSO and diluted in MeOH, and the absorbance of the 10 µg/mL solution was measured between 290–400 nm with a UV-Vis spectrophotometer (SHIMADZU UV-2600 240 V, 1 cm quartz cell at 1 nm intervals). The absorbance at wavelength λ is related to the transmittance T(λ) via the Equation (1): A(λ) = −Log[T(λ)](1) where T(λ) is the fraction of incident irradiance transmitted by the sample. […]
The molar extinction coefficient was calculated with the absorbance recorded at the ʎmax applying the Lambert–Beer equation.

Row | remaining activity at 10 µM (Human recombinant 5-LO) [%] | Photostability (classification, threshold 80%) [1] | %UVAPfeff. [1] [%] | %SPFeff. [1] [%] | IC50 [2] [µM] | ʎmax [3] [nm] | Ɛ (molar extinction coefficient) [3] | IC50 (Human recombinant 5-LO) [µM] | SMILES | SI (selectivity index) [2]
1 | 72 ± 20.4 | cannot be considered photostable | 54.38 | 99.14 | 85.6 ± 2.76 | 335.0 | 34,075.83 dm^3 mol^−1 cm^−1 |  | C(=C\c1nc2ccccc2s1)/c1ccccc1 [BZTst1, (E)-2-styrylbenzo[d]thiazole] | >1.17
2 | 47.3 ± 20.2 |  | 95.96 | 104.43 | 79.8 ± 4.7 | 354.4 | 30,835.44 dm^3 mol^−1 cm^−1 | 9.26 | Oc1ccc(/C=C/c2nc3ccccc3s2)cc1 [BZTst2, (E)-4-(2-(benzo[d]thiazol-2-yl)vinyl)phenol] | 1.07
3 | 46.7 ± 28.5 |  | 152.12 | 103.21 | > 100 | 351.0 | 35,125.63 dm^3 mol^−1 cm^−1 |  | COc1ccc(/C=C/c2nc3ccccc3s2)cc1 [BZTst3, (E)-2-(4-methoxystyryl)benzo[d]thiazole] | 
4 | 6.85 ± 3.72 |  | 101.57 | 104.02 | 58.1 ± 12.1 | 363.3 | 22,070.71 dm^3 mol^−1 cm^−1 | 0.05 | Oc1ccc(/C=C/c2nc3ccccc3s2)cc1O [BZTst4, (E)-4-(2-(benzo[d]thiazol-2-yl)vinyl)benzene-1,2-diol] | 1.38
5 | 34.8 ± 18.4 |  | 106.30 | 100.00 | > 100 | 358.0 | 22,513.37 dm^3 mol^−1 cm^−1 |  | COc1ccc(/C=C/c2nc3ccccc3s2)cc1O [BZTst5, (E)-5-(2-(benzo[d]thiazol-2-yl)vinyl)-2-methoxyphenol] | <1
6 | 6.84 ± 3.38 | photostable | 80.75 | 93.59 | 71.5 ± 14.2 | 361.2 | 16,871.66 dm^3 mol^−1 cm^−1 | 0.33 | COc1cc(/C=C/c2nc3ccccc3s2)ccc1O [BZTst6, (E)-4-(2-(benzo[d]thiazol-2-yl)vinyl)-2-methoxyphenol] | >1.40

Reference: publication PMC11504387, “Synthesis and Biological Activity Assessment of 2-Styrylbenzothiazoles as Potential Multifunctional Therapeutic Agents” (Antioxidants, 2024)
